Structure (SMILES) | melting point
C=CCN1C2CCC3C1CCC2N3C(c1ccc(C(=O)N(CC)CC)cc1)c1cccc(O)c1 (stereo unspecified) | 147 to 150 °C
O=C(CS(=O)Cc1ccc(F)cc1)NO (stereo unspecified) | 176 to 177 °C
COC(=O)c1ccc(C(=O)c2ccc3c(c2)C2(C)C4(C)CCC(C4)C2(C)O3)cc1 (stereo unspecified) | 150 °C
COc1cc(C=O)c(CCC(=O)O)c(C=O)c1O | 164 to 166 °C
CCOCc1nc2c(N)nc3cc(OCCCN4CCCC4=O)ccc3c2n1CCCCNC(=O)NC(C)C | 98 to 101 °C
CCC(Oc1ccc(C(C)(C)CC)cc1C(C)(C)CC)C(=O)Nc1cc(Cl)c2[nH]c(=O)[nH]c2c1O (stereo unspecified) | 201 to 204 °C
Cc1nc(C(C)(O)c2nc(C)c(C)s2)sc1C | 143 to 144 °C
CNC(=O)c1c(NC(=O)CCl)c(OC)c(C(=O)NC)c(NC(=O)CCl)c1OC | 146 to 148 °C
CCC(N)=C(C(C)=O)c1[nH]c2ccccc2c1C(O)CN(C)C (stereo unspecified) | 90 to 104 °C
CNC(=O)[C@@H](C[C@H](O)[C@H](CC1CCCCC1)NC(=O)[C@H](Cc1cscn1)NC(=O)[C@@H](CC(=O)N1CCOCC1)Cc1ccc(OC)cc1)C(C)C | 128 to 130 °C
COC(=NS(=O)(=O)c1nc(-c2ccccc2C)ns1)C(C)C | 116 to 118 °C
CCOP(=O)(OCC)C(CNC=NNC(=O)c1nc2ccccc2[nH]1)P(=O)(OCC)OCC | 143 °C
CC(C)OC(=O)c1cc(-n2c(=O)[nH]c3c(c2=O)CCC3)c(Cl)cc1Cl | 186 to 189 °C
COC1=C(OC)C(=O)C(CCCCCCCCCCCO)=C(C)C1=O | 57 °C
CCOC(=O)Cc1c(C(=O)OCC)[nH]c2ccccc12 | 75 to 78 °C
Nc1c(Cl)cc(C(O)CNCCCCCCOCCCCc2ncccc2O)cc1Cl (stereo unspecified) | 95 to 96 °C
CC1(C)c2c(Cl)cccc2S(=O)(=O)N1CC=O | 156 °C
Nn1cccc1-c1ccccc1 | 80 to 82 °C
CCC1CC2C3CCC4=CC(=O)CCC4(CSC)C3CCC2(C)C1=O (stereo unspecified) | 83 °C
CN(C)CCC1CCC2(CC1)Nc1cc(Cl)c(S(N)(=O)=O)cc1S(=O)(=O)N2 (stereo unspecified) | 238 to 239 °C

Structure (SMILES) | melting point
CCCn1cc2c(C3C(=O)Nc4ccc(Br)cc43)nc(NCCC(F)(F)F)nc2n1 (stereo unspecified) | > 300 °C
O=[N+]([O-])c1cc(CO)c(CO)cc1Oc1ccc(F)cc1F | 124 °C
CCOC(=O)C=C1c2ccccc2CC(=O)c2ccccc21 | 56 to 62 °C
O=C(O)Cc1ccc(Br)c(O)c1Br | 186 °C
COC(=O)c1cc([N+](=O)[O-])cn1C | 122 to 124 °C
CCOCc1nc2c(N)nc3ccccc3c2n1CC1(OCCS(C)(=O)=O)CCCC1 | 163 to 165 °C
CCOC(=O)CN(Cc1cc(F)ccc1[N+](=O)[O-])C(=O)C(F)(F)F | 60 to 63 °C
COCCN1CCN(CCc2ccc(Nc3ncc4c(n3)-c3ccccc3C(c3ccccc3C(F)(F)F)C4)cc2)CC1 (stereo unspecified) | 139 to 140 °C
COC(=O)C(O)c1cc2c(cc1Cl)OCO2 (stereo unspecified) | 66 to 68 °C
CC(C)[C@H](NC(=O)N(C)Cc1csc(C2CC2)n1)C(=O)N[C@@H](Cc1ccccc1)C[C@H](O)[C@H](Cc1ccccc1)NC(=O)OCc1cncs1 | 70 to 71 °C
CCOC(=O)c1ccc(/C=C/c2c(C)cc3c(c2OC)C(C)(C)CCC3(C)C)cc1 | 123 °C
COc1ccc2c(c1)CC(C(=O)O)N2C(C)=O (stereo unspecified) | 164 to 167 °C
CC1Oc2ccc(CN3CCN(c4nc5c(c(=O)n(C)c(=O)n5C)n4C)CC3)cc2NC1=O (stereo unspecified) | 130 to 138 °C
CC(=O)c1sccc1S(=O)(=O)N(C)c1cccc2cc(-c3nccs3)[nH]c12 | 156 °C
COC(=O)C(CC(=O)c1ccccc1)SC(C)=O (stereo unspecified) | 53.5 to 54 °C
CC(C)N1Cc2cc(O)ccc2N(CCN2CC=C(c3c[nH]c4cc(F)ccc34)CC2)S1(=O)=O | 80 to 82 °C
N#Cc1ccc2nccn2c1 | 166 to 167 °C
CC(C)CC1CCN(CCc2ccccc2)C1=O (stereo unspecified) | 69 to 71 °C
COc1ccc(C(=O)N2c3ccccc3C(n3c4ccccc4c4ccccc43)CC2CCCCCN(C)C(C)=O)cc1OC (stereo unspecified) | 173 to 175 °C
Cc1cnc2nc(S(=O)(=O)Cl)nn2c1 | 106 to 108 °C

Structure (SMILES) | melting point
COC(=O)CN(C)C(=O)CC(Cc1cccc2ccccc12)C(=O)NC(Cc1c[nH]cn1)C(=O)NC(CC(C)C)C(O)C(=O)OC (mixture of isomers) | 75 to 79 °C
COC(=O)CCn1c(=O)n(CCN2CCN(c3ccc(F)cc3)CC2)c(=O)c2cscc21 | 165 to 166 °C
C[C@@H](C(=O)O)N(C(=O)[C@@H]1CS[C@H](c2ccccc2O)N1C(=O)CCSC(=O)c1ccccc1)c1ccccc1 | 95 to 100 °C
O=C1CCC2=C1C(c1ccc(F)c(I)c1)C1=C(CCS1)N2 (stereo unspecified) | > 250 °C
CS(=O)(=O)c1cnc(NC(=O)c2ccccc2O)s1 | 282 to 283 °C
O=S1(=O)c2sccc2C=C(CO)N1CCN1CCOCC1 | 119 to 121 °C
CC(=O)OC1CSC(Oc2ccc3oc(C)nc3c2)C(OC(C)=O)C1OC(C)=O (stereo unspecified) | 168 °C
CN(C)c1nc(N)c(-c2nc(N)no2)nc1Cl | 210 to 211 °C
Cc1nn(-c2cc(CC(Cl)C(=O)NC3CC3)c(Cl)cc2Cl)c(=O)n1C(F)F (stereo unspecified) | 139 to 143 °C
O=C1Nc2cc(NC(=O)c3cccn(-c4ccc(F)cc4)c3=O)ccc2/C1=C/c1ccc[nH]1 | > 300 °C
Cc1ccccc1NC(=O)Nc1ccc(CC(=O)NC2(c3cc(CCC(=O)O)on3)CCCC2)cc1 | 195 to 197 °C
CC(=O)c1cnn2ccccc12 | 96 to 97 °C
O=C(O)c1cn(CCF)c2cc(Cl)c(F)cc2c1=O | 262 to 264 °C
CCCCCCCCCCOc1ccccc1C(=N)OCC | 93 to 96 °C
NC(=O)C1CCN(c2ncncc2Br)CC1 | 188 to 190 °C
O=C1CCC(c2ccccc2)(c2ccccc2)C2CN(C(Cc3ccccc3)=NC(c3ccccc3)c3ccccc3)CC12 (stereo unspecified) | 172 °C
N#Cc1c(-c2ccc(Cl)c(Cl)c2)cc(C2CC2)[nH]c1=O | 290 to 295 °C
C=C(C)c1ccccc1C(=O)O | 71.6 to 72.5 °C
CC(C)(COc1ccc2ncc(Cl)n2n1)CS(N)(=O)=O | 197 to 200 °C

The remaining lines, values ahead:

melting point | Structure (SMILES)
168 to 169 °C | COC(=O)c1nn(Cc2ccccc2)c2c1CCc1cc(OCc3ccccc3)ccc1-2
114 °C | O=S(=O)(c1ccc(F)cc1)N1CCCC1c1ccc(C(F)(F)F)cc1 (racemic)
130 to 135 °C | Cn1nnc2ccc(C(c3ccc(Cl)cc3)n3cncn3)cc21 (stereo unspecified)
205 to 208 °C | COc1cc(Nc2ncnc3cc(OCCCc4ccncc4)c(OC)cc23)c(OC)cc1Cl
125 to 127 °C | CSC(Cc1ccc2oc(Cc3nc(-c4cccc(C)c4)oc3C)cc2c1)C(=O)O (stereo unspecified)
110 °C | COC(=O)C1Oc2ccc(Cl)cc2C(Cc2ccccc2)(c2ccccc2)O1 (stereo unspecified)
156 to 158 °C | CC(C)C(=O)N1CCN(c2ccc(NC(=O)c3ccccn3)cc2Cl)CC1
156 to 158 °C | Cc1nc2cc(NC(=O)c3ccco3)ccc2o1
103 °C | O=S(=O)(c1ccccc1)c1ncc(Cl)cn1
198 to 199 °C | COc1ccc2cc(-c3cnc(-c4cn(Cc5ccccc5)c5ccccc45)o3)ccc2c1
79.1 °C | CC(C)(C)OC(=O)N1CCC(NCc2cccc(NC(=O)c3ccc(F)cc3Cl)n2)CC1
97 to 99 °C | CCOC(=O)c1c(-c2ccc(F)cc2)nc(-c2ccccc2)nc1C(C)C
74 to 76 °C | O=[N+]([O-])c1cnccc1-c1ccc(Cl)cc1
125 °C | CCC(=O)OC(C)c1ccc(-c2ccc(OCc3ccccc3)cc2)cc1 (single isomer, unassigned; (+))
193 to 195 °C | O=C(CC(=O)c1ccc(Br)cc1)c1ccc(Br)cc1
77 to 78 °C | Cc1cc2ccccc2c(-c2cccc(I)c2)n1
240 °C | CC(=O)Oc1ccc(-c2cnc(-c3ccccc3)[nH]c2=O)cc1OC(C)=O
208 to 210 °C | COc1ccc(C(CC(=O)NCc2ccccc2)N2C(=O)c3ccccc3C2=O)cc1OC (stereo unspecified)
81 °C | Cc1ccc(S(=O)(=O)Oc2ccc(C(C)(C)C)cc2C(C)(C)C)cc1

melting point | Structure (SMILES)
114 to 116 °C | COC(=O)c1c(Cl)cc(Cl)cc1NC(=O)CSc1ccc(N)cc1
132 to 135 °C | CC(C)(OCc1nn(C(=O)c2ccccc2)c2ccccc12)C(=O)O
195 to 196 °C | COC(=O)CCc1cc2c(OC)cccc2n1Cc1ccccc1
181 to 182 °C | CCOC(=O)c1ccc(-c2ccnc(Nc3cc(OC)c(OC)c(OC)c3)n2)cc1
146 to 147 °C | COc1ccc2c(c1)C(c1ccccc1)NC(=S)N2CC1CC1 (stereo unspecified)
41 to 41.5 °C | CCCCCCCCOc1ccc(C2CN=C(c3c(F)cccc3Cl)S2)cc1 (stereo unspecified)
74 °C | CC(CCc1cccc(Cl)c1)NC(=O)n1nc(N(C)C)n(N)c1=O (stereo unspecified)
244 to 247 °C | CCCCOc1ccccc1-c1ncc(-c2nnn[nH]2)c(=O)[nH]1
111 to 115 °C | CCOc1nnc(NCc2ccc(OC)c(Cl)c2)c2cc(Cl)ccc12
111 to 117 °C | CC(=O)OC(C(Oc1ccc(Cl)cc1)n1cncn1)C(C)(C)CCl (stereo unspecified)
207 to 208 °C | CCOP(=O)(Cc1ccc(NC(=O)/C=C/c2cnn(Cc3ccccc3)c2-c2ccc(F)cc2)cc1)OCC
251 to 252 °C | COc1ccc(N2CCN(c3ccc(-n4c(C)n[nH]c4=O)cn3)CC2)cc1
204 to 205 °C | CCc1cnc(N2CCN(C(=O)c3ccccc3NC3=c4ccccc4=NCN3c3ccccc3)CC2)nc1
151 to 153 °C | Cc1ccc(-c2nc3ccc(C#N)cn3c2CN(C)C(=O)CC(C)C)cc1
125 to 127 °C | Cc1cc(O)ccc1-c1ccc(C=O)c(Cl)c1
105 to 110 °C | CCOC(=O)C1=CC(OCC)(C(C)C)N(c2ccc(Cl)cc2Cl)N1 (stereo unspecified)
247 to 249 °C | CC(C)c1ccc2nc3ccc(C(=O)NCCCCc4cccnc4)cc3c(=O)n2c1
252 to 255 °C | O=C(NCC1CCCCC1)c1c(Cl)ccc2nc(N3CCC(c4nnn[nH]4)CC3)ccc12

From a melting point compilation (Tetko et al.; mined from patent text by program, amines drawn as free bases though some values may be those of a salt)
